The values below come from the OligoGym collection.

HELM strings list units from the 5' end as sugar, base in round brackets, then linkage (d deoxyribose, r ribose, m 2'-O-methyl, p phosphodiester). Strings are as the collection lists them; they lack the last nucleoside at the 3' end of the tested compound. [moe] = 2'-O-(2-methoxyethyl) (MOE); [sp] = phosphorothioate linkage; [m5C] = 5-methylcytosine

For the data set, the target named is SCN2A. Description: mouse, dose not given. As to conditions: ASO.
For the substance “RNA1{[moe](T)[sp].[moe](T)p.[moe](T)p.[moe](G)p.[moe](G)p.d(G)[sp].d(T)[sp].d([m5C])[sp].d(T)[sp].d([m5C])[sp].d(T)[sp].d(T)[sp].d(A)[sp].d(G)[sp].d([m5C])[sp].[moe](T)p.[moe](T)p.[moe](T)[sp].[moe]([m5C])}$$$$ (last 3' nucleoside missing)”, the 3 h FOB score was found to be 3.33 score 0-7.

For the substance “RNA1{[moe](T)[sp].[moe]([m5C])p.[moe](A)p.[moe](T)p.d(G)[sp].d([m5C])[sp].d(A)[sp].d(T)[sp].d(A)[sp].d(A)[sp].d(T)[sp].d([m5C])[sp].d([m5C])[sp].d([m5C])[sp].[moe](A)p.[moe](T)p.[moe](T)p.[moe](A)[sp].[moe](T)}$$$$ (last 3' nucleoside missing)”, the 3 h FOB score was 0 score 0-7.

“RNA1{[moe](T)[sp].[moe](T)p.[moe](T)p.[moe](G)p.d(G)[sp].d(G)[sp].d([m5C])[sp].d([m5C])[sp].d(A)[sp].d(T)[sp].d(T)[sp].d(T)[sp].d(T)[sp].d([m5C])[sp].[moe](A)p.[moe](T)p.[moe]([m5C])p.[moe](A)[sp].[moe](T)}$$$$ (last 3' nucleoside missing)” registered a 3 h FOB score of 0 score 0-7.

Substance “RNA1{[moe](T)[sp].[moe]([m5C])p.[moe](T)p.[moe](G)[sp].d([m5C])[sp].d(A)[sp].d(T)[sp].d(G)[sp].d(T)[sp].d(A)[sp].d(A)[sp].d([m5C])[sp].[moe]([m5C])p.[moe](T)p.[moe](T)p.[moe](T)[sp].[moe](A)}$$$$ (last 3' nucleoside missing)” showed a 3 h FOB score of 2 score 0-7.

With “RNA1{[moe]([m5C])[sp].[moe](G)p.[moe](A)p.[moe](A)p.[moe](T)p.[moe](T)p.d([m5C])[sp].d(T)[sp].d(A)[sp].d(T)[sp].d(T)[sp].d(T)[sp].d(T)[sp].d(A)[sp].d(T)[sp].d(A)[sp].[moe](A)p.[moe](A)[sp].[moe](T)}$$$$ (last 3' nucleoside missing)”, the 3 h FOB score is 2.33 score 0-7.

Substance “RNA1{[moe]([m5C])[sp].[moe]([m5C])p.[moe](G)p.[moe](A)p.[moe](A)p.[moe](T)p.d(T)[sp].d([m5C])[sp].d(T)[sp].d(A)[sp].d(T)[sp].d(T)[sp].d(T)[sp].d(T)[sp].d(A)[sp].d(T)[sp].[moe](A)p.[moe](A)[sp].[moe](A)}$$$$ (last 3' nucleoside missing)” registered a 3 h FOB score of 0 score 0-7.

“RNA1{[moe](T)[sp].[moe](G)p.[moe]([m5C])p.[moe](A)[sp].d(T)[sp].d(G)[sp].d(T)[sp].d(A)[sp].d(A)[sp].d([m5C])[sp].d([m5C])[sp].d(T)[sp].[moe](T)p.[moe](T)p.[moe](A)p.[moe](T)[sp].[moe](A)}$$$$ (last 3' nucleoside missing)” showed a 3 h FOB score of 0 score 0-7.

“RNA1{[moe](T)[sp].[moe](A)p.[moe](T)p.[moe](T)p.[moe](T)p.d(T)[sp].d(T)[sp].d([m5C])[sp].d(T)[sp].d(A)[sp].d([m5C])[sp].d(A)[sp].d([m5C])[sp].d(T)[sp].d(G)[sp].[moe]([m5C])p.[moe](T)p.[moe](G)[sp].[moe]([m5C])}$$$$ (last 3' nucleoside missing)”: the 3 h FOB score came out at 2.67 score 0-7.

Turning to “RNA1{[moe](G)[sp].[moe](A)p.[moe](G)p.[moe](A)p.[moe](T)p.d(T)[sp].d(G)[sp].d([m5C])[sp].d(T)[sp].d(T)[sp].d(T)[sp].d([m5C])[sp].d([m5C])[sp].d([m5C])[sp].d(T)[sp].[moe](T)p.[moe](T)p.[moe](A)[sp].[moe](T)}$$$$ (last 3' nucleoside missing)”, the 3 h FOB score is 1 score 0-7.

Take “RNA1{[moe](T)[sp].[moe](G)p.[moe]([m5C])p.[moe](A)p.d(T)[sp].d(G)[sp].d(T)[sp].d(A)[sp].d(A)[sp].d([m5C])[sp].d([m5C])[sp].d(T)[sp].d(T)[sp].d(T)[sp].[moe](A)p.[moe](T)p.[moe](A)p.[moe]([m5C])[sp].[moe](A)}$$$$ (last 3' nucleoside missing)”: the 3 h FOB score stood at 0 score 0-7.

“RNA1{[moe](G)[sp].[moe]([m5C])p.[moe](A)p.[moe](T)p.[moe](G)p.d(T)[sp].d(T)[sp].d(T)[sp].d(A)[sp].d(T)[sp].d([m5C])[sp].d(T)[sp].d(T)[sp].d(A)[sp].d(G)[sp].[moe](T)p.[moe](T)p.[moe]([m5C])[sp].[moe](T)}$$$$ (last 3' nucleoside missing)” registered a 3 h FOB score of 1 score 0-7.

With “RNA1{[moe](A)[sp].[moe](T)p.[moe](G)p.[moe]([m5C])p.d(A)[sp].d(T)[sp].d(A)[sp].d(A)[sp].d(T)[sp].d([m5C])[sp].d([m5C])[sp].d([m5C])[sp].d(A)[sp].d(T)[sp].[moe](T)p.[moe](A)p.[moe](T)p.[moe](A)[sp].[moe]([m5C])}$$$$ (last 3' nucleoside missing)”, the 3 h FOB score turned out to be 0 score 0-7.

“RNA1{[moe](T)[sp].[moe](T)p.[moe](G)p.[moe](A)p.[moe]([m5C])p.d([m5C])[sp].d(A)[sp].d([m5C])[sp].d(G)[sp].d([m5C])[sp].d(T)[sp].d(T)[sp].d(A)[sp].d([m5C])[sp].d(A)[sp].[moe](T)p.[moe]([m5C])p.[moe](A)[sp].[moe](A)}$$$$ (last 3' nucleoside missing)” gave a 3 h FOB score of 2 score 0-7.

Substance “RNA1{[moe](T)[sp].[moe]([m5C])p.[moe](T)p.[moe](T)p.[moe](T)p.d([m5C])[sp].d(T)[sp].d(T)[sp].d(A)[sp].d(T)[sp].d(T)[sp].d(T)[sp].d([m5C])[sp].d(T)[sp].d(G)[sp].[moe](T)p.[moe](T)p.[moe](T)[sp].[moe]([m5C])}$$$$ (last 3' nucleoside missing)” gave a 3 h FOB score of 1.67 score 0-7.

“RNA1{[moe](T)[sp].[moe](T)p.[moe]([m5C])p.[moe](T)p.d(G)[sp].d([m5C])[sp].d(A)[sp].d(T)[sp].d(G)[sp].d(T)[sp].d(A)[sp].d(A)[sp].d([m5C])[sp].d([m5C])[sp].[moe](T)p.[moe](T)p.[moe](T)p.[moe](A)[sp].[moe](T)}$$$$ (last 3' nucleoside missing)” yielded a 3 h FOB score of 1 score 0-7.

On to “RNA1{[moe](T)[sp].[moe](G)p.[moe]([m5C])p.[moe](A)p.[moe](T)p.d(A)[sp].d(A)[sp].d(T)[sp].d([m5C])[sp].d([m5C])[sp].d([m5C])[sp].d(A)[sp].d(T)[sp].d(T)[sp].d(A)[sp].[moe](T)p.[moe](A)p.[moe]([m5C])[sp].[moe](A)}$$$$ (last 3' nucleoside missing)”, for which the 3 h FOB score was found to be 0 score 0-7.

“RNA1{[moe]([m5C])[sp].[moe](A)p.[moe](G)p.[moe]([m5C])p.d(A)[sp].d(T)[sp].d(A)[sp].d(T)[sp].d(T)[sp].d([m5C])[sp].d(T)[sp].d(A)[sp].d(A)[sp].d([m5C])[sp].[moe](A)p.[moe](T)p.[moe](G)p.[moe](G)[sp].[moe](T)}$$$$ (last 3' nucleoside missing)” showed a 3 h FOB score of 0 score 0-7.

“RNA1{[moe]([m5C])[sp].[moe](T)p.[moe](G)p.[moe]([m5C])p.[moe](A)p.[moe](T)[sp].d(G)[sp].d(T)[sp].d(A)[sp].d(A)[sp].d([m5C])[sp].d([m5C])[sp].d(T)[sp].d(T)[sp].[moe](T)p.[moe](A)[sp].[moe](T)}$$$$ (last 3' nucleoside missing)”: the 3 h FOB score is 0 score 0-7.

“RNA1{[moe](A)[sp].[moe](T)p.[moe](G)p.[moe](T)p.[moe](A)p.d(A)[sp].d(T)[sp].d([m5C])[sp].d(A)[sp].d([m5C])[sp].d(T)[sp].d(T)[sp].d(T)[sp].d([m5C])[sp].d(A)[sp].[moe](T)p.[moe]([m5C])p.[moe]([m5C])[sp].[moe](A)}$$$$ (last 3' nucleoside missing)” showed a 3 h FOB score of 0 score 0-7.

In turn, “RNA1{[moe](T)[sp].[moe](G)p.[moe]([m5C])p.[moe](A)p.d(T)[sp].d(A)[sp].d(A)[sp].d(T)[sp].d([m5C])[sp].d([m5C])[sp].d([m5C])[sp].d(A)[sp].d(T)[sp].d(T)[sp].[moe](A)p.[moe](T)p.[moe](A)p.[moe]([m5C])[sp].[moe](A)}$$$$ (last 3' nucleoside missing)” came in with a 3 h FOB score of 0 score 0-7.

In the case of “RNA1{[moe](T)[sp].[moe]([m5C])p.[moe](T)p.[moe]([m5C])p.[moe](T)p.d(T)[sp].d(T)[sp].d([m5C])[sp].d(T)[sp].d(T)[sp].d(A)[sp].d(T)[sp].d(T)[sp].d(T)[sp].d([m5C])[sp].[moe](T)p.[moe](G)p.[moe](T)[sp].[moe](T)}$$$$ (last 3' nucleoside missing)”, the 3 h FOB score is 0 score 0-7.

Consider “RNA1{[moe]([m5C])[sp].[moe](T)p.[moe](G)p.[moe](T)p.[moe](T)p.d(T)[sp].d(G)[sp].d(G)[sp].d(G)[sp].d(T)[sp].d([m5C])[sp].d(T)[sp].d([m5C])[sp].d(T)[sp].d(T)[sp].[moe](A)p.[moe](G)p.[moe]([m5C])[sp].[moe](T)}$$$$ (last 3' nucleoside missing)”, for which the 3 h FOB score amounted to 2.67 score 0-7.

“RNA1{[moe](T)[sp].[moe](G)p.[moe](G)p.[moe]([m5C])p.[moe](T)p.d(A)[sp].d(T)[sp].d(A)[sp].d([m5C])[sp].d(T)[sp].d([m5C])[sp].d(A)[sp].d(T)[sp].d(T)[sp].d(G)[sp].[moe]([m5C])p.[moe](T)p.[moe]([m5C])[sp].[moe](T)}$$$$ (last 3' nucleoside missing)”: the 3 h FOB score stood at 1 score 0-7.

As to “RNA1{[moe](T)[sp].[moe](G)p.[moe](T)p.[moe](A)p.[moe](A)p.d([m5C])[sp].d([m5C])[sp].d(T)[sp].d(T)[sp].d(T)[sp].d(A)[sp].d(T)[sp].d(A)[sp].d([m5C])[sp].d(A)[sp].[moe](T)p.[moe](T)p.[moe](T)[sp].[moe](A)}$$$$ (last 3' nucleoside missing)”, the 3 h FOB score was found to be 0 score 0-7.

In turn, “RNA1{[moe](A)[sp].[moe](T)p.[moe](A)p.[moe](T)p.d(T)[sp].d(T)[sp].d(T)[sp].d(T)[sp].d([m5C])[sp].d(T)[sp].d(A)[sp].d([m5C])[sp].d(A)[sp].d([m5C])[sp].[moe](T)p.[moe](G)p.[moe]([m5C])p.[moe](T)[sp].[moe](G)}$$$$ (last 3' nucleoside missing)” returned a 3 h FOB score of 1 score 0-7.
